Eleven compounds from paper PMC7367369, “A small library of chalcones induce liver cancer cell death through Akt phosphorylation inhibition” (Scientific Reports, 2020) can be followed below.

The term IC50 denotes the point on the concentration scale where inhibition reaches its midpoint.

Counter-ions that a name gives are not always drawn. Like-named read-outs stand apart in the source and are kept apart here.

Common to all, as to assay type: cell-based, human
One assay has as its system Huh7. In words: NCI-60 sulforhodamine B (SRB) cytotoxicity assay, Huh7. The settings on record: read-out: IC50 Huh7. Here is the method:
(§1) The bioactivities of the synthesized chalcones were assessed on human liver cancer cell lines and on DPSCs with NCI-SRB assay in vitro. DPSCs used to asses the bioactivity of chalcones on untransformed control cells with the potential of hepatic lineage. […] We also included 5-Fluorouracil which is used in clinics for gastrointestinal cancers and Sorafenib. All results were normalized to DMSO negative control measurements. The experiment was performed in triplicate.
(§2) Well differentiated human primary liver cancer cell lines Huh7, HepG2 and Hep3B, and poorly differentiated Mahlavu, FOCUS and SNU475 HCC cells were cultured in Dulbecco’s Modified Eagle’s Standard (DMEM) medium supplemented with 10% Fetal Bovine Serum (FBS), 100 units/mL penicillin and 100 µg/mL streptomycin (Gibco, Invitrogen, Carlsbad, CA, USA). 0.1 mM nonessential amino acids (NEAA) which are specific to HCC cell lines also added to culture media. Cells were cultured in a 5% CO2 incubator at 37^∘C
(§3) Primary liver cancer cells Huh7, HepG2, Hep3B, Mahlavu, FOCUS, Snu475 along with hepatic progenitor Dental pulp stem cells were seeded into 96-well plates (1,000–3,000 HCC cell/well and 10,000 cells DPSC/well ) for 24 h. The cells were then treated with increasing concentrations of the chalcones ( 2.5-40μM ). DMSO (AppliChem Biochemica, Darmstadt, Germany) was used as negative control. The growth has stopped at the end of 72 h by fixing cold with 10% (v/v) trichloroacetic acid (Merck, Schuchardt, Germany). Cells were then stained with 0.4% (m/v) of sulforhodamine (Sigma-Aldrich, St. Louis, USA) in 1% acetic acid solution. The absorbency values were acquired at 515 nm. All experiments were done in triplicate.
In general terms: The SRB assay estimates cell density from bound dye.

In another assay the test system is HepG2. In words: NCI-60 sulforhodamine B (SRB) cytotoxicity assay, HepG2. The settings on record: read-out: IC50 HepG2. Here is the method:
as §1, §2
as §3, with “The absorbency values were acquired at 515 nm.” left out

In the next assay the test system is Hep3B. In words: NCI-60 sulforhodamine B (SRB) cytotoxicity assay, Hep3B. To be noted: 72 h, read-out: IC50 Hep3B. The procedure:
as §1, §2
as §3, with “The absorbency values were acquired at 515 nm.” left out

The test system of a further assay is Mahlavu. In words: NCI-60 sulforhodamine B (SRB) cytotoxicity assay, Mahlavu. The settings on record: 72 h, read-out: IC50 Mahlavu. The procedure: as §1, §2
as §3, with “The absorbency values were acquired at 515 nm.” left out

For the next assay, the system named is FOCUS. In words: NCI-60 sulforhodamine B (SRB) cytotoxicity assay, FOCUS. To be noted: 72 h, read-out: IC50 FOCUS. The procedure: as §1, §2
as §3, with “The absorbency values were acquired at 515 nm.” left out

Assay [1] concerns dental pulp stem cells (DPSC). In words: NCI-60 sulforhodamine B (SRB) cytotoxicity assay, dental pulp stem cells. To be noted: 72 h, read-out: IC50 DPSC. Here is the method:
as §1
Dental pulp stem cells (DPSCs) were isolated from anonymised unidentified healthy intact wisdom tooth. DPSCs were isolated within few hours upon wisdom teeth surgery from patients above 18 years old. All were informed about the procedures, and their consents were obtained. Teeth were broken carefully in order to reach the dental pulp area. […] Then, the cells were seeded onto flasks in 10ml DMEM-F12 media (Lonza) supplemented with 1% penicillin/streptomycin solution (Hyclone) and 15% FBS (Fetal Bovine Serum,Hyclone, Logan, UT, USA) and cultured in a 5% CO2 incubator at 37^∘C .
as §3, with “The absorbency values were acquired at 515 nm.” left out

A further assay relates to SNU475. In words: NCI-60 sulforhodamine B (SRB) cytotoxicity assay, SNU475. The settings on record: read-out: IC50 SNU475. Here is the method:
as §1, §2
as §3, with “The absorbency values were acquired at 515 nm.” left out

[2] abbreviates: Homo sapiens, Huh-7, SRB, 72 h, 2.5–40 μM, triplicate.
[3] abbreviates: Homo sapiens, HepG2, SRB, 72 h, 2.5–40 μM, triplicate.
[4] abbreviates: Homo sapiens, Hep3B, SRB, 2.5–40 μM, triplicate.
The mark [5] stands for this setting: Homo sapiens, Mahlavu, SRB, 2.5–40 μM, triplicate.
The mark [6] stands for this setting: Homo sapiens, SRB, 2.5–40 μM, triplicate.
Setting [7] is: Homo sapiens, SRB, 2.5–40 μM, triplicate, untransformed control cells.
The mark [8] stands for this setting: SRB, 72 h, 2.5–40 μM, triplicate.
Setting [9] is: Homo sapiens, SNU-475, SRB, 72 h, 2.5–40 μM, triplicate.

As to `O=c1[nH]cc(F)c(=O)[nH]1` [5-Fluorouracil, reference compound], the concentration for half-maximal inhibition (IC50) is 30.7 µM in the assay with Huh7 (setting [2]); 5 µM with HepG2 (setting [3]); 15.2 µM in the assay on Hep3B (setting [4]); 10 µM with Mahlavu (setting [5]); 7.7 µM in the assay on FOCUS (setting [6]); 23.7 µM in assay [1] (setting [7]).

As to `Oc1cc(O)c2c(c1)O[C@H](c1ccc(O)c(O)c1)[C@@H](O)C2` [Catechin hydrate, reference compound], the IC50 is > 40 µM in the assay with Huh7 (setting [8]); > 40 µM with HepG2 (setting [8]); > 40 µM with Hep3B (SRB, 2.5–40 μM, triplicate); > 40 µM in the assay with Mahlavu (SRB, 2.5–40 μM, triplicate); > 40 µM in the assay with FOCUS (SRB, 2.5–40 μM, triplicate); > 40 µM in the assay with SNU475 (setting [8]). Moreover, the concentration for half-maximal inhibition (IC50) in assay [1] (SRB, 2.5–40 μM, triplicate, untransformed control cells) is > 40 µM.

Regarding `COc1ccc(Cc2nccc3cc(OC)c(OC)cc23)cc1OC` [Papaverine hydrochloride, reference compound], the concentration for half-maximal inhibition (IC50) with Huh7 (Homo sapiens, Huh-7, 72 h) was 8.5 µM; in the assay with HepG2 (setting [3]), 4.9 µM; with Hep3B (setting [4]) it was 20.4 µM; with Mahlavu (setting [5]), > 40 µM; in the assay on FOCUS (setting [6]), 1.7 µM; in the assay with SNU475 (setting [9]), 17.8 µM. Besides, in assay [1] (setting [7]), the concentration for half-maximal inhibition (IC50) was > 40 µM.

For `O=c1c(O)c(-c2ccc(O)c(O)c2)oc2cc(O)cc(O)c12` [Quercetin, reference compound], the concentration for half-maximal inhibition (IC50) with Huh7 (setting [2]) worked out at 12.5 µM; with HepG2 (setting [3]) it was 8.4 µM; in the assay with Hep3B (setting [4]), 21.8 µM; with Mahlavu (setting [5]), 11.3 µM; with FOCUS (setting [6]), 17.9 µM; in the assay on SNU475 (setting [9]), 11.6 µM. In assay [1] (setting [7]), the IC50 was found to be 21.2 µM.

Consider `CNC(=O)c1cc(Oc2ccc(NC(=O)Nc3ccc(Cl)c(C(F)(F)F)c3)cc2)ccn1` [Sorafenib, reference compound], for which the IC50 came to 1.3 µM in the assay with Huh7 (Homo sapiens, Huh-7, 72 h); 5.6 µM in the assay on HepG2 (setting [3]); 7.9 µM in the assay on Mahlavu (setting [5]); 7.5 µM in the assay on SNU475 (setting [9]); 7.1 µM in assay [1] (setting [7]).

Regarding `COc1ccc(C(=O)/C=C/c2ccccc2)cc1` [compound 3], the IC50 with Huh7 (setting [2]) is 6.4 µM; in the assay with HepG2 (setting [3]) it was 7.6 µM; in the assay on Hep3B (setting [4]) it was 18 µM; with Mahlavu (setting [5]) it was 9.4 µM; with FOCUS (setting [6]), 20 µM; in the assay with SNU475 (setting [9]), 13.1 µM. Further, in assay [1] (setting [7]), the IC50 was > 40 µM.

Regarding `O=C(/C=C/c1cccc([N+](=O)[O-])c1)c1ccccc1` [compound 4], the IC50 with Huh7 (setting [2]) is > 40 µM; in the assay on HepG2 (setting [3]), > 40 µM; with Hep3B (setting [4]), > 40 µM; in the assay on Mahlavu (setting [5]) it was 24.8 µM; with FOCUS (setting [6]), > 40 µM; in the assay on SNU475 (setting [9]), 23.8 µM. The IC50 in assay [1] (setting [7]) was > 40 µM.

In the case of `COc1ccc(/C=C/C(=O)c2ccccc2)cc1` [compound 6], the IC50 was found to be 6.4 µM with Huh7 (Homo sapiens, Huh-7, 72 h); 7.6 µM in the assay on HepG2 (Homo sapiens, HepG2, 72 h); 7.8 µM in the assay on Hep3B (Homo sapiens, Hep3B); 6.3 µM with Mahlavu (Homo sapiens, Mahlavu); 6.5 µM with FOCUS (Homo sapiens); 10 µM with SNU475 (Homo sapiens, SNU-475, 72 h). For the same compound, in assay [1] (Homo sapiens), the IC50 is > 40 µM.

Turning to `COc1ccc(/C=C/C(=O)c2cccc([N+](=O)[O-])c2)cc1` [compound 7], the half-maximal inhibitory concentration (IC50) with Huh7 (setting [2]) is > 40 µM; in the assay with HepG2 (setting [3]) it was > 40 µM; with Hep3B (setting [4]), > 40 µM; in the assay with Mahlavu (setting [5]) it was 31.1 µM; in the assay with FOCUS (setting [6]), > 40 µM; with SNU475 (setting [9]), > 40 µM. For the same compound, the half-inhibitory concentration (IC50) in assay [1] (setting [7]) is > 40 µM.

With `COc1ccc(/C=C/C(=O)c2ccc(OC)cc2)cc1` [compound 8], the IC50 in the assay with Huh7 (setting [2]) was 17.9 µM; in the assay with HepG2 (setting [3]), 26 µM; with Hep3B (setting [4]), 22.1 µM; in the assay with Mahlavu (setting [5]), 17.3 µM; with FOCUS (setting [6]), 21.5 µM; in the assay with SNU475 (setting [9]), 21.6 µM. Further, the IC50 in assay [1] (setting [7]) is > 40 µM.

Consider `COc1ccc(C(=O)/C=C/c2ccc(Cl)cc2)cc1` [compound 10], for which the half-maximal inhibitory concentration (IC50) was found to be 11.9 µM with Huh7 (setting [2]); 13.9 µM in the assay on HepG2 (setting [3]); 16.5 µM with Hep3B (setting [4]); 14.6 µM with Mahlavu (setting [5]); 15.9 µM in the assay on FOCUS (setting [6]); 20 µM in the assay on SNU475 (setting [9]). Further, the concentration for half-maximal inhibition (IC50) in assay [1] (setting [7]) was > 40 µM.
